These are literature values, as cited in patent EP1482795B1, “NEW IMMU[…]” (CORIXA CORPORATION, priority 2002, dated 2003).

With “Monophosphoryl lipid A [MPL® immunostimulant]”, the “doses that can be safely administered to humans” value was “at least 20 µg/kg”. Besides, the “dose levels at which increases in temperature, flu-like symptoms, increasing heart rate and modest decreases in blood pressure can occur” value (humans, some patients) is at least 0.01 mg/kg.
